In ChEMBL document CHEMBL1781960, “Discovery of non-glycoside sodium-dependent glucose co-transporter 2 (SGLT2) inhibitors by ligand-based virtual screening” (J Med Chem, 2010):

How the values were obtained:
[1] = biological target: T1, Sodium/glucose cotransporter 2 (Homo sapiens, UniProt P31639); assay: (§1) Inhibition of human SGLT2 expressed in CHO-K1 cells assessed as reduction in [14C]-alpha-methylglucopyranoside uptake after 2 hrs by liquid scintillation counting; assay type: cell-based
T1 sequence (P31639 whole entry): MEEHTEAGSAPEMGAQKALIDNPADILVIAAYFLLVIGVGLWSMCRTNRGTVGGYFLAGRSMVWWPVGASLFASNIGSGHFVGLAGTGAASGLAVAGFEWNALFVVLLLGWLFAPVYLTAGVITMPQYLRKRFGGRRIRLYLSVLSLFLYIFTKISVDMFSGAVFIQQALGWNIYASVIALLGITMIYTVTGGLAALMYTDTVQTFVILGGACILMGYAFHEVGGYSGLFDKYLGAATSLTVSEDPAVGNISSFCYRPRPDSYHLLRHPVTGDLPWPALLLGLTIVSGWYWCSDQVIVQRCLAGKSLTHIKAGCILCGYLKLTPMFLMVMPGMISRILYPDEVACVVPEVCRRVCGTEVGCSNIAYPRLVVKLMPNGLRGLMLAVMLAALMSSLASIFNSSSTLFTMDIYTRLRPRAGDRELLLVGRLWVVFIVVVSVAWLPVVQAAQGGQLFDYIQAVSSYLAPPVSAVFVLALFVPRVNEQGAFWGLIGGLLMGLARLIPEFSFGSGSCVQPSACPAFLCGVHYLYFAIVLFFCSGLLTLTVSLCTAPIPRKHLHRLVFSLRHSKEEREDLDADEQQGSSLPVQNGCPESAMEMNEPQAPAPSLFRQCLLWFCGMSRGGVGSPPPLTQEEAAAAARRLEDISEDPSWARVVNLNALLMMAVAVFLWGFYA

[2] = biological target: T2, Sodium/glucose cotransporter 2 (Homo sapiens) (UniProt P31639); assay: as §1; assay type: cell-based
T2 sequence (whole entry): T1 sequence (P31639 whole entry)

| SMILES | EC50 [1] | inhibition [2] |
| --- | --- | --- |
| COc1ccc(NC(=S)NNC(=O)c2cc(-c3ccccc3)sc2N)cc1 | 8.98 µM | Dose-dependent effect |
| C=CCn1c(=N)n(CC(O)C(C)(C)C)c2ccccc21 (stereo not drawn) | 40.4 µM | – |
| CC(C)(C)C(O)Cn1c(=N)n(Cc2ccccc2)c2ccccc21 (stereo not drawn) | 3.85 µM | Dose-dependent effect |
| OC[C@H]1O[C@@H](n2cc(Cc3ccc(C4CC4)cc3)c3c(F)cc(F)cc32)[C@H](O)[C@@H](O)[C@@H]1O | 0.0028 µM | – |
| OC[C@H]1O[C@@H](n2cc(Cc3ccc(C4CC4)cc3)c3c(Cl)cccc32)[C@H](O)[C@@H](O)[C@@H]1O | 0.0023 µM | – |
| CCc1ccc(Cc2cc([C@@H]3O[C@H](CO)[C@@H](O)[C@H](O)[C@H]3O)ccc2C)cc1 | 0.012 µM | – |
| OC[C@H]1O[C@@H](n2cc(Cc3ccc(C4CC4)cc3)c3c(F)cccc32)[C@H](O)[C@@H](O)[C@@H]1O | 0.0019 µM | – |
| Cn1cc(CCc2ccc3c(c2)CCO3)c2c(O[C@@H]3O[C@H](CO)[C@@H](O)[C@H](O)[C@H]3O)cccc21 | 0.067 µM | – |
| OC[C@H]1O[C@@H](Oc2cccc3[nH]cc(CCc4ccc5c(c4)CCO5)c23)[C@H](O)[C@@H](O)[C@@H]1O | 0.024 µM | – |
| N=c1n(Cc2ccc(Cl)cc2)c2ccccc2n1CC(O)c1ccco1 (stereo not drawn) | 11 µM | – |
| N=c1n(CCO)c2ccccc2n1Cc1ccccc1 | > 50 µM | – |
| COc1ccc(C(O)Cn2c(=N)n(Cc3ccccc3)c3ccccc32)cc1 (stereo not drawn) | 16.2 µM | – |
| N=c1n(CC(=O)O)c2ccccc2n1Cc1ccc(Cl)cc1 | > 50 µM | – |
| N=c1n(Cc2ccccc2)c2ccccc2n1CC(O)COc1ccccc1 (stereo not drawn) | 4.6 µM | – |
| N=c1n(Cc2ccccc2)c2ccccc2n1CC(O)c1ccco1 (stereo not drawn) | 34.7 µM | – |
| COc1cc(C(Nc2cccc(C)n2)c2ccc3ccc(C)nc3c2O)cc(OC)c1OC (stereo not drawn) | 5.92 µM | Dose-dependent effect |
| CC(C)(C)C(O)Cn1c(=N)n(CCN2CCCCC2)c2ccccc21 (stereo not drawn) | > 50 µM | – |
| CCOc1ccc(Cc2cc([C@@H]3O[C@H](CO)[C@@H](O)[C@H](O)[C@H]3O)ccc2C)cc1 | 0.0011 µM | – |
| N=c1n(CCO)c2ccccc2n1Cc1ccc(Cl)cc1 | 31.1 µM | – |
| N=c1n(Cc2ccccc2)c2ccccc2n1CC(O)c1cccs1 (stereo not drawn) | 19.1 µM | – |
